These results are taken from PubChem BioAssay AID330 (DTP/NCI, 2004).

The assay relates to P388 leukemia ip, CD2F1 mice, survival T/C. In words: NCI In Vivo Anticancer Drug Screen. Data for tumor model P388 Leukemia (intraperitoneal) in CD2F1 (CDF1) mice. Particulars: endpoint: median survival time, higher = longer survival. In a few lines:
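Mice carrying the transplanted tumor received test compound or vehicle. Survival was recorded in each group, and the value is the treated-group measurement divided by that of the vehicle-treated control group.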

Setting [1] is: dose: 50.0 mg/kg/injection, schedule: Q01DX005 (ip), vehicle: Klucel (hydroxypropylcellulose) (HPC).
[2] abbreviates: dose: 100.0 mg/kg/injection, schedule: Q01DX005 (ip), vehicle: Klucel (hydroxypropylcellulose) (HPC).
Setting [3] is: dose: 50.0 mg/kg/injection, schedule: Q01DX005 (ip), vehicle: saline with Tween-80.
Where [4] appears, read: dose: 100.0 mg/kg/injection, schedule: Q01DX005 (ip), vehicle: saline with Tween-80.
[5] abbreviates: dose: 200.0 mg/kg/injection, schedule: Q01DX005 (ip), vehicle: saline with Tween-80.
Setting [6] is: dose: 50.0 mg/kg/injection, schedule: Q01DX009 (ip), vehicle: Klucel (hydroxypropylcellulose) (HPC).
[7] abbreviates: dose: 100.0 mg/kg/injection, schedule: Q01DX009 (ip), vehicle: Klucel (hydroxypropylcellulose) (HPC).
[8] abbreviates: dose: 200.0 mg/kg/injection, schedule: Q01DX009 (ip), vehicle: Klucel (hydroxypropylcellulose) (HPC).
The mark [9] stands for this setting: dose: 50.0 mg/kg/injection, schedule: Q01DX009 (ip), vehicle: saline.
The mark [10] stands for this setting: dose: 100.0 mg/kg/injection, schedule: Q01DX009 (ip), vehicle: saline.
Setting [11] is: dose: 100.0 mg/kg/injection, schedule: Q04DX003 (ip), vehicle: saline with Tween-80.
Setting [12] is: dose: 200.0 mg/kg/injection, schedule: Q04DX003 (ip), vehicle: saline with Tween-80.
Where [13] appears, read: dose: 400.0 mg/kg/injection, schedule: Q04DX003 (ip), vehicle: saline with Tween-80.

“And” between values parts separate entries of the source, which are not always exact repeats. Equal entries are not always repeated. Inconclusive results and toxic doses are left out.

In the case of `CC1=CCCC(C)(O)C2CC(CCC3(C)OC3CC1)C(C)C(=O)O2` (stereo not given), the T/C is 108 % of control (dose: 7.5 mg/kg/injection, schedule: Q01DX009 (ip), vehicle: Klucel (hydroxypropylcellulose) (HPC)); 103 % of control (dose: 15.0 mg/kg/injection, schedule: Q01DX009 (ip), vehicle: Klucel (hydroxypropylcellulose) (HPC)); 89 % of control (dose: 30.0 mg/kg/injection, schedule: Q01DX009 (ip), vehicle: Klucel (hydroxypropylcellulose) (HPC)); 91 % of control (dose: 60.0 mg/kg/injection, schedule: Q01DX009 (ip), vehicle: Klucel (hydroxypropylcellulose) (HPC)).

Consider `CC(Cl)C(=O)NN=C(c1ccccc1)c1ccccc1` (stereo not given), for which the T/C is, setting by setting: (dose: 42.0 mg/kg/injection, schedule: Q01DX009 (ip), vehicle: saline) 94 % of control; (dose: 84.0 mg/kg/injection, schedule: Q01DX009 (ip), vehicle: saline) 90 % of control; (dose: 168.0 mg/kg/injection, schedule: Q01DX009 (ip), vehicle: saline) 105 % of control.

On to `CCO/C=N/n1c(C(=O)NCCCOC)nc2ccccc2c1=O`, for which the T/C runs as follows: under setting [1], 107 % of control; under setting [2], 94 % of control; (dose: 200.0 mg/kg/injection, schedule: Q01DX005 (ip), vehicle: Klucel (hydroxypropylcellulose) (HPC)) 100 % of control.

As for `CCOC(=Nc1ccc(F)cc1)SC(c1ccccc1)(c1ccccc1)c1ccccc1`, the T/C is, setting by setting: under setting [3], 110 % of control; under setting [4], 104 % of control; under setting [5], 99 % of control.

Regarding `COc1ccc(/C=N\S(=O)(=O)c2ccc(OC)cc2)cc1`, the T/C by setting is: under setting [6], 111 % of control; under setting [7], 102 % of control; under setting [8], 95 % of control.

With `Cc1ccc(I)c(C(O)(C(F)(F)F)C(F)(F)F)c1`, the T/C under setting [6] was 97 % of control and the T/C under setting [7] was 91 % of control.

For the compound `CC1(C)[C@@H]2CC[C@H](OC(=O)/C=C/c3ccccc3)[C@@H]2[C@@H]2CC[C@H]3O[C@]321`, the T/C reads like this: (dose: 80.0 mg/kg/injection, schedule: Q01DX001 (ip), vehicle: Klucel (hydroxypropylcellulose) (HPC)) 109 % of control; (dose: 160.0 mg/kg/injection, schedule: Q01DX001 (ip), vehicle: Klucel (hydroxypropylcellulose) (HPC)) 102 % of control; (dose: 320.0 mg/kg/injection, schedule: Q01DX001 (ip), vehicle: Klucel (hydroxypropylcellulose) (HPC)) 100 % of control.

On to `CCCCN(CCCC)CCNc1ccc(C)c2sc3cc(C)ccc3c(=O)c12`, for which the T/C is 116 % of control under setting [3], 102 % of control under setting [4] and 98 % of control under setting [5].

With `CCOC(=O)CC1CCCN1Sc1ccc([N+](=O)[O-])cc1[N+](=O)[O-]` (stereo not given), the T/C by setting is: under setting [3], 100 % of control; under setting [4], 101 % of control; under setting [5], 100 % of control.

For `COc1ccc(C2CC3CCC(C2O)N3C)cc1` (stereo not given), the T/C runs as follows: under setting [1], 103 % of control; under setting [2], 96 % of control.

For `O=C1CC=C2C3CC4N(CCC45c4cc(O)c(O)cc4N1C25)C/C3=C\CBr` (stereo not given), the T/C (dose: 7.5 mg/kg/injection, schedule: Q01DX005 (ip), vehicle: Klucel (hydroxypropylcellulose) (HPC)) is 106 % of control; the T/C (dose: 15.0 mg/kg/injection, schedule: Q01DX005 (ip), vehicle: Klucel (hydroxypropylcellulose) (HPC)) is 108 % of control; the T/C (dose: 30.0 mg/kg/injection, schedule: Q01DX005 (ip), vehicle: Klucel (hydroxypropylcellulose) (HPC)) was 123 % of control.

In the case of `NCc1nnn(Cc2ccccc2)c1N`, the T/C reads like this: (dose: 50.0 mg/kg/injection, schedule: Q01DX009 (ip), vehicle: saline with Tween-80) 90 % of control; (dose: 100.0 mg/kg/injection, schedule: Q01DX009 (ip), vehicle: saline with Tween-80) 92 % of control; (dose: 200.0 mg/kg/injection, schedule: Q01DX009 (ip), vehicle: saline with Tween-80) 92 % of control.

On to `CC1OC(OC2C(CO)OC(O[C@H]3CC[C@@]4(C)C(=CC[C@H]5[C@@H]6C[C@@H]7O[C@]8(CC[C@@H](C)CN8)[C@@H](C)[C@@H]7[C@@]6(C)CC[C@@H]54)C3)C(O)C2O)C(O)C(O)C1O` (stereo not given in full), for which the T/C was 101 % of control (dose: 12.5 mg/kg/injection, schedule: Q01DX005 (ip), vehicle: acid diluted with saline); 105 % of control (dose: 25.0 mg/kg/injection, schedule: Q01DX005 (ip), vehicle: acid diluted with saline); 105 % of control and 87 % of control (dose: 50.0 mg/kg/injection, schedule: Q01DX005 (ip), vehicle: acid diluted with saline); 105 % of control (dose: 100.0 mg/kg/injection, schedule: Q01DX005 (ip), vehicle: acid diluted with saline).

On to `CC1(C)CC(=O)C2=C(C1)Oc1c(Cl)cc(Cl)cc1C2`, for which the T/C reads like this: under setting [9], 108 % of control; under setting [10], 98 % of control; (dose: 200.0 mg/kg/injection, schedule: Q01DX009 (ip), vehicle: saline) 92 % of control.

With `Nc1nc(I)c2ncn(C3OC(CO)C(O)C3O)c2n1` (stereo not given), the T/C is, setting by setting: under setting [3], 98 % of control; under setting [4], 92 % of control; under setting [5], 96 % of control.

Turning to `O=C1[C@@H]2C3C=CC([C@H]4C(=O)N(CO)C(=O)[C@@H]34)[C@@H]2C(=O)N1CO`, the T/C (dose: 25.0 mg/kg/injection, schedule: Q01DX009 (ip), vehicle: Klucel (hydroxypropylcellulose) (HPC)) is 114 % of control; the T/C under setting [8] was 152 % of control and 160 % of control.

On to `Cc1cc(C)nc(NC(N)=NCCc2ccccc2)n1`, for which the T/C reads like this: (dose: 12.5 mg/kg/injection, schedule: Q04DX003 (ip), vehicle: saline with Tween-80) 104 % of control; (dose: 25.0 mg/kg/injection, schedule: Q04DX003 (ip), vehicle: saline with Tween-80) 100 % of control; (dose: 50.0 mg/kg/injection, schedule: Q04DX003 (ip), vehicle: saline with Tween-80) 100 % of control.

For the compound `CN(C)c1ccsc(=S)c1`, the T/C runs as follows: (dose: 6.25 mg/kg/injection, schedule: Q01DX005 (ip), vehicle: Klucel (hydroxypropylcellulose) (HPC)) 102 % of control; (dose: 12.5 mg/kg/injection, schedule: Q01DX005 (ip), vehicle: Klucel (hydroxypropylcellulose) (HPC)) 101 % of control; (dose: 25.0 mg/kg/injection, schedule: Q01DX005 (ip), vehicle: Klucel (hydroxypropylcellulose) (HPC)) 105 % of control; under setting [1], 98 % of control.

For the compound `COC1CCC(NC(C)=O)C(C2CCCCC2)C1` (stereo not given), the T/C was 99 % of control under setting [3], 94 % of control under setting [4] and 91 % of control under setting [5].

`C=C1C(=O)O[C@H]2[C@H]1[C@@H](OC(=O)C=C(C)C)CC1=C[C@@H](C[C@@]3(C)O[C@@H]23)OC1=O`: the T/C was 92 % of control (dose: 12.5 mg/kg/injection, schedule: Q01DX009 (ip), vehicle: saline); 100 % of control (dose: 25.0 mg/kg/injection, schedule: Q01DX009 (ip), vehicle: saline); 99 % of control under setting [9]; 101 % of control under setting [10].

For `Cc1ccc(-c2cnc3[nH]c(=O)[nH]c(=O)c3n2)cc1`, the T/C runs as follows: (dose: 100.0 mg/kg/injection, schedule: Q04DX002 (ip), vehicle: saline) 97 % of control; (dose: 200.0 mg/kg/injection, schedule: Q04DX002 (ip), vehicle: saline) 106 % of control; (dose: 400.0 mg/kg/injection, schedule: Q04DX002 (ip), vehicle: saline) 91 % of control.

Take `CCCCOC(=O)C(C)OC(=O)Nc1cccc(Cl)c1` (stereo not given): the T/C is 90 % of control under setting [11], 90 % of control under setting [12] and 100 % of control under setting [13].

Regarding `CCCCCCC(O)CCCCCCCCCCC(=O)O` (stereo not given), the T/C reads like this: under setting [11], 109 % of control; under setting [12], 100 % of control; under setting [13], 104 % of control.

As to `CCCCCCCCCCCCCCCCCC[N+]1([O-])CCOCC1`, the T/C under setting [9] is 98 % of control and the T/C under setting [10] is 96 % of control.

As for `C[N+](C)(CC(=O)Nc1cccc(C(F)(F)F)c1)CC(=O)Nc1cccc(C(F)(F)F)c1`, the T/C was 100 % of control (dose: 3.13 mg/kg/injection, schedule: Q01DX009 (ip), vehicle: saline sonified); 104 % of control (dose: 6.25 mg/kg/injection, schedule: Q01DX009 (ip), vehicle: saline sonified); 109 % of control (dose: 12.5 mg/kg/injection, schedule: Q01DX009 (ip), vehicle: saline sonified).
